Among the data in patent US12534742B2, “Compound for regulating gene editing efficiency and application thereof” (Shanghai Institute of Organic Chemistry, Chinese Academy of …, priority 2018, dated 2026) are IC50 values, retold here.

The structures appear in SMILES notation.

The target of the assay is CRISPR/Cas9 from Streptococcus pyogenes (SpyCas9) (Streptococcus pyogenes serotype M1, UniProt Q99ZW2). As to the kind of experiment: cell-based.
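Note: Cell-based reporter with a SpyCas9 target site placed in EGFP, where NHEJ repair of the cut restores the reading frame, read-out is the share of EGFP-positive cells, lowered by inhibitors.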

Sequence of CRISPR/Cas9 from Streptococcus pyogenes (SpyCas9) (Q99ZW2 whole entry): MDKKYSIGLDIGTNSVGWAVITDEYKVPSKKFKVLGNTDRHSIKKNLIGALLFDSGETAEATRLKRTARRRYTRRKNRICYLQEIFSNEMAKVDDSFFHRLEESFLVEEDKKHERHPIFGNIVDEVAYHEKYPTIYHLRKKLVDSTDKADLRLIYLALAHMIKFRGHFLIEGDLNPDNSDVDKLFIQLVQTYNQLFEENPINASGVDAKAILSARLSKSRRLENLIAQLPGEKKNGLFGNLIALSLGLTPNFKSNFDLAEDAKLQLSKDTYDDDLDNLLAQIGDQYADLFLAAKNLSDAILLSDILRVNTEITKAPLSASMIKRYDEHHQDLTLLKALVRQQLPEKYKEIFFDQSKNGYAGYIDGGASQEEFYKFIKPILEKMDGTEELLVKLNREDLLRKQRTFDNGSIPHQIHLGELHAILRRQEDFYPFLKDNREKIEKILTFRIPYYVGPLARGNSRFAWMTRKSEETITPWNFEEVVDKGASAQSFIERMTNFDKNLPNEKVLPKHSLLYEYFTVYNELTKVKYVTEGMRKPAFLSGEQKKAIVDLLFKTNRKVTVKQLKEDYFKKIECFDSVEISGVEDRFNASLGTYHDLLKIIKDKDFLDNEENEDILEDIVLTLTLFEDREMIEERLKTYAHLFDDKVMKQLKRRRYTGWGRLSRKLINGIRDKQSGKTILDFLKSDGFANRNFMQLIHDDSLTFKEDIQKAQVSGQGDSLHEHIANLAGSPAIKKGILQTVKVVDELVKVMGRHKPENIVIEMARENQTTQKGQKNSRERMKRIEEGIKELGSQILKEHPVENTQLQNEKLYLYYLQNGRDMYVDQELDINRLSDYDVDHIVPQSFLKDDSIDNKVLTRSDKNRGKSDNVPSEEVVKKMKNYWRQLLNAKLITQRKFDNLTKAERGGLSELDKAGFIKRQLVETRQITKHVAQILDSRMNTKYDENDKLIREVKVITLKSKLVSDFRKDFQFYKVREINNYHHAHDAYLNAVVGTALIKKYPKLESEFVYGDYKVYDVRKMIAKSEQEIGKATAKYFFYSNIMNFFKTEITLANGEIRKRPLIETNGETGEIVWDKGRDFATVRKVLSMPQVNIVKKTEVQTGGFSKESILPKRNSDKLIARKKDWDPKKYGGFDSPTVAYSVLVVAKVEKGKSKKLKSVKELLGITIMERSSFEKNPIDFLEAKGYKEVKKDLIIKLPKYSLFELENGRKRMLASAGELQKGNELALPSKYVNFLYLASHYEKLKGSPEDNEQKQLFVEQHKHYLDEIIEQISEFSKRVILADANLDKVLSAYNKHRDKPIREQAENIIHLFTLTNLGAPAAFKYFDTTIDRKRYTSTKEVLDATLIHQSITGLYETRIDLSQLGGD
From the text: The CRISPR/Cas9 recognition site was inserted into the EGFP coding sequence so that the downstream sequence of the CRISPR/Cas9 recognition site was inside the box. The EGFP sequence was cleaved by Cas9 to produce double-strand breaks (DSBs), which would repair one of the two DNA repair mechanisms in the cell: non-homologous end joining (NHEJ) or homologous directed repair (HDR). The insertion or deletion introduced by NHEJ would restore the open reading frame of EGFP, thus activating EGFP fluorescence (FIG. 1).

By IC50 is commonly meant the concentration needed to halve the response being measured. A lower IC50 goes with greater potency. Consider `O=C(/C=C/c1ccc(O)cc1)c1ccccc1` [Compound 12], for which the IC50 lay within 10 to 100 µM. Compound `C=CS(=O)(=O)c1ccccc1` [Compound 32] had a half-maximal inhibitory concentration (IC50) of 10 to 100 µM.

On to `COc1cc(/C=C/C(=O)CC(=O)/C=C/c2ccc(O)c(OC)c2)ccc1O` [Compound 75], for which the IC50 fell in the range of 10 to 100 µM. On to `O=C(/C=C/c1ccc(Br)cc1)c1ccccc1` [Compound 101], for which the half-maximal inhibitory concentration (IC50) was in the range of 10 to 100 µM. In the case of `COc1ccc(C(=O)/C=C/c2ccccc2)cc1` [Compound 102] it was 10 to 100 µM; in that of `O=C(/C=C/c1cccc(Cl)c1)c1ccccc1` [Compound 104], 10 to 100 µM; in that of `O=C(/C=C/c1ccccc1)c1ccc(Cl)cc1` [Compound 105], 10 to 100 µM. The figure for `O=C(/C=C/c1cc(F)c(F)c(F)c1)c1ccccc1` [Compound 110] is 10 to 100 µM; for `COc1ccc(/C=C/C(=O)c2ccccc2)cc1` [Compound 111] it is 10 to 100 µM.

On to `C#CCCOc1cccc(/C=C/S(=O)(=O)F)c1` [Compound 119], for which the IC50 was 1 to 10 µM. Take `O=C(/C=C/c1ccccc1Br)c1ccccc1` [Compound 127]: the IC50 was in the range of 10 to 100 µM. `O=C(O)/C=C/c1cccc(O)c1` [Compound 801] gave an IC50 of more than 100 µM. The figure for `O=C(O)/C=C/c1ccc(O)cc1` [Compound 802] is more than 100 µM; for `COc1cc(/C=C/C(=O)O)ccc1O` [Compound 803] it is more than 100 µM.

`COC(=O)/C=C/c1ccc(O)cc1` [Compound 804] came in with an IC50 of more than 100 µM. Take `COc1cc(/C=C/c2ccc(O)cc2)cc(OC)c1` [Compound 811]: the IC50 was more than 100 µM. On to `O=C(/C=C/c1ccc(O)cc1)c1ccc(O)cc1O` [Compound 813], for which the IC50 was more than 100 µM. The compound `Oc1cc(O)c2c(c1)O[C@H](c1ccc(O)c(O)c1)[C@@H](O)C2` [Compound 814] displayed a 50% inhibitory concentration (IC50) of more than 100 µM. Turning to `O=c1c(O)c(-c2ccc(O)cc2)oc2ccccc12` [Compound 815], the IC50 was more than 100 µM. As for `O=C1CC(c2ccccc2O)Oc2ccccc21` (stereo not drawn) [Compound 816], the IC50 was more than 100 µM. The compound `O=C1CC(c2cccc(O)c2)Oc2ccccc21` (stereo not drawn) [Compound 817] displayed an IC50 of more than 100 µM. Consider `C=C(C)C(N)=O` [Compound 825], for which the IC50 is more than 100 µM. With `COC(=O)/C=C/C(=O)OC` [Compound 826], the IC50 is more than 100 µM. Regarding `C/C(C=O)=C\c1ccccc1` [Compound 827], the half-maximal inhibitory concentration (IC50) was more than 100 µM. `C=CC(=O)OC` [Compound 828] returned an IC50 of more than 100 µM. Consider `C=CC(=O)N(C)C` [Compound 829], for which the IC50 is more than 100 µM. `C=CS(C)(=O)=O` [Compound 830] returned an IC50 of more than 100 µM.

`CN(C)C/C=C/C(=O)Nc1cc2c(Nc3ccc(F)c(Cl)c3)ncnc2cc1O[C@@H]1CCOC1` [Compound 833] came in with an IC50 of more than 100 µM. The compound `CNC(=O)c1ccccc1Sc1ccc2c(/C=C/c3ccccn3)n[nH]c2c1` [Compound 834] displayed a concentration for half-maximal inhibition (IC50) of more than 100 µM. In turn, `N#C/C(=C1/SC[C@@H](c2ccc(Cl)cc2Cl)S1)n1ccnc1` [Compound 835] showed an IC50 of more than 100 µM.

In turn, `Cc1ccc(=O)n(-c2ccccc2)c1` [Compound 836] registered an IC50 of more than 100 µM. Regarding `C/C(O)=C(\C#N)C(=O)Nc1ccc(C(F)(F)F)cc1` [Compound 837], the IC50 is more than 100 µM.

On to `CCN1C(=O)C=CC1=O` [Compound 838], for which the IC50 is more than 100 µM.

`O=C(/C=C/c1ccccc1)N1CCCCC1` [Compound 840] showed an IC50 of more than 100 µM. In the case of `O=C(/C=C/c1ccccc1)N1CCOCC1` [Compound 841] it was more than 100 µM; in that of `CCN(CC)C(=O)/C=C/c1ccccc1` [Compound 842], more than 100 µM. On to `CN(C)C(=O)/C=C/c1ccccc1` [Compound 843], for which the IC50 is more than 100 µM.

`CC(C)(C)OC(=O)N1CCN(C(=O)/C=C/c2ccccc2)CC1` [Compound 844] registered a half-maximal inhibitory concentration (IC50) of more than 100 µM. With `O=C(/C=C/c1ccccc1)N1CCN(Cc2ccccc2)CC1` [Compound 845], the half-maximal inhibitory concentration (IC50) was more than 100 µM. In turn, `COc1ccc(CNC(=O)/C=C/c2ccccc2)cc1` [Compound 846] gave an IC50 of more than 100 µM. In the case of `CS(=O)(=O)/C=C/c1ccccc1` [Compound 847], the IC50 was more than 100 µM. In the case of `O=c1c(O)c(-c2ccc(O)c(O)c2)oc2cc(O)cc(O)c12` [Compound 850] it was more than 100 µM. For the compound `NC(=O)/C=C/c1ccccc1` [Compound 851], the IC50 is more than 100 µM.

On to `CCOCCNC(=O)/C=C/c1ccccc1` [Compound 853], for which the IC50 is more than 100 µM. The compound `O=C(/C=C/c1ccccc1)NC1CC1` [Compound 854] yielded an IC50 of more than 100 µM.

The compound `O=C(/C=C/c1ccccc1)N1CCCC1` [Compound 855] gave an IC50 of more than 100 µM. In turn, `O=C(/C=C/c1ccccc1)Nc1c(F)cccc1F` [Compound 859] registered an IC50 of more than 100 µM.

`CSc1ccc(NC(=O)/C=C/c2ccccc2)cc1` [Compound 860] registered an IC50 of more than 100 µM. In the case of `O=C(/C=C/c1ccccc1)Nc1ccc([N+](=O)[O-])cc1` [Compound 861] it was more than 100 µM; in that of `O=C(/C=C/c1ccccc1)Nc1cccnc1` [Compound 862], more than 100 µM. `CN(C(=O)/C=C/c1ccccc1)c1ccccc1` [Compound 863] displayed an IC50 of more than 100 µM. Consider `O=S(=O)(/C=C/c1ccccc1)N1CCOCC1` [Compound 864], for which the IC50 is more than 100 µM. Take `NS(=O)(=O)/C=C/c1ccccc1` [Compound 865]: the IC50 is more than 100 µM.

In turn, `CC(C)(C)OC(=O)N1CCN(S(=O)(=O)/C=C/c2ccccc2)CC1` [Compound 866] came in with an IC50 of more than 100 µM. `CCOCCNS(=O)(=O)/C=C/c1ccccc1` [Compound 867] had an IC50 of more than 100 µM. In the case of `CCN(CC)S(=O)(=O)/C=C/c1ccccc1` [Compound 868] it was more than 100 µM. In the case of `O=S(=O)(/C=C/c1ccccc1)N1CCN(Cc2ccccc2)CC1` [Compound 869] it was more than 100 µM; in that of `CC1CC(C)CN(S(=O)(=O)/C=C/c2ccccc2)C1` (stereo not drawn) [Compound 870], more than 100 µM. `CC(C)N(C(C)C)S(=O)(=O)/C=C/c1ccccc1` [Compound 871] yielded an IC50 of more than 100 µM. With `O=S(=O)(/C=C/c1ccccc1)N1CCCCC1` [Compound 872], the IC50 is more than 100 µM.

`CCN(Cc1ccccc1)S(=O)(=O)/C=C/c1ccccc1` [Compound 873]: the IC50 is more than 100 µM. `CCC1(O)C(=O)OCc2c1cc1n(c2=O)Cc2cc3ccccc3nc2-1` (stereo not drawn) [Compound 874] showed an IC50 of more than 100 µM.

`CN(C)C/C=C/C(=O)O` [Compound 876] yielded an IC50 of more than 100 µM.

Take `O=S(=O)(/C=C/c1ccccc1)Oc1ccc(I)cc1` [Compound 877]: the IC50 is more than 100 µM. As for `CC(C)c1ccc(OS(=O)(=O)/C=C/c2ccccc2)cc1` [Compound 878], the IC50 is more than 100 µM.

For `O=S(=O)(/C=C/c1ccccc1)Oc1cccc(F)c1` [Compound 879], the IC50 was more than 100 µM. In the case of `O=S(=O)(/C=C/c1ccccc1)Oc1ccc(Br)cc1` [Compound 880] it was more than 100 µM; in that of `O=S(F)(=Nc1ccc(Br)cc1)Oc1ccc(Br)cc1` (stereo not drawn) [Compound 881], more than 100 µM. As to `O=S(F)(=Nc1ccc(Br)cc1)N1CCC(Cc2ccccc2)CC1` (stereo not drawn) [Compound 882], the IC50 was more than 100 µM.

In turn, `CN(c1ccccc1)S(=O)(=O)F` [Compound 883] returned a concentration for half-maximal inhibition (IC50) of more than 100 µM. `Cc1cccc(C2CCCN2S(=O)(=O)F)c1` (stereo not drawn) [Compound 884] had an IC50 of more than 100 µM. `O=C1C=CCCC1` [Compound 885] registered an IC50 of more than 100 µM. In the case of `O=C(/C=C/c1ccc2c(c1)OCO2)c1ccccc1` [Compound 886] it was more than 100 µM; in that of `CN(C)c1ccc(/C=C/C(=O)c2ccccc2)cc1` [Compound 887], more than 100 µM; in that of `O=C1C=CCC1` [Compound 888], more than 100 µM. The compound `CC(=O)/C=C/c1cc2c(cc1Br)OCO2` [Compound 889] yielded an IC50 of more than 100 µM. In the case of `CC(=O)/C=C/c1ccccc1` [Compound 890] it was more than 100 µM; in that of `COc1ccc(/C=C/S(=O)(=O)c2ccc(Cl)cc2)cc1` [Compound 892], more than 100 µM. The compound `O=S(=O)(/C=C/c1ccccc1)c1ccc(Cl)cc1` [Compound 893] gave an IC50 of more than 100 µM.

In turn, `C=C(C)C(=O)N(CC)CC` [Compound 894] yielded an IC50 of more than 100 µM. `O=C(/C=C/c1cccc(Cl)c1)c1cccc(Cl)c1` [Compound 895] came in with an IC50 of more than 100 µM. In turn, `O=C(/C=C/c1cccc(Br)c1)c1cccc(Br)c1` [Compound 896] came in with an IC50 of more than 100 µM.

`COc1ccc(COCCCCC2=C3CCC(C)CC3CC2=O)cc1` (stereo not drawn) [Compound 897] showed an IC50 of more than 100 µM.

Compound `O=Cc1cc2c(cc1C#Cc1ccccc1)OCO2` [Compound 898] showed an IC50 of more than 100 µM. The compound `O=C(/C=C/c1ccccc1)c1ccc(Br)cc1` [Compound 900] displayed an IC50 of more than 100 µM.

In the case of `O=C(/C=C\n1cnc(-c2cc(C(F)(F)F)cc(C(F)(F)F)c2)n1)NNc1ccccn1` [Compound 901], the IC50 fell in the range of 1 to 10 µM. `COc1cc(-c2ncn(/C=C\C(=O)OC(C)C)n2)cc(C(F)(F)F)c1` [Compound 902] yielded an IC50 of 1 to 10 µM.

In turn, `O=C(/C=C\n1cnc(-c2cc(C(F)(F)F)cc(C(F)(F)F)c2)n1)N1CC(F)(F)C1` [Compound 903] showed an IC50 of 1 to 10 µM. Consider `NC(=O)/C(=C/n1cnc(-c2cc(C(F)(F)F)cc(C(F)(F)F)c2)n1)c1cncnc1` [Compound 904], for which the IC50 was in the range of 1 to 10 µM. Turning to `COc1cc(/C=C/C(=O)N2CCC=CC2=O)cc(OC)c1OC` [Compound 905, Piperlongumine], the IC50 lay in the range of 1 to 10 µM.
